Assay results reported in US6825225B2, “Bicyclic isoxazolinones as antibacterial agents” (Pharmacia & Upjohn Company, priority 2000, dated 2004).
Converted amounts (≈) assume the structure as drawn.

System: Methicillin-susceptible S. aureus UC®9213
Experiment: Minimum inhibitory concentration (MIC) by agar dilution
Assay type: cell-based
Details: Staphylococcus aureus, UC9213, lowest concentration that inhibits visible growth, read-out: Antibacterial Activity, Minimum Inhibitory Concentration, S.A.
From the text: The isoxazolinone antibacterial agents of this invention have useful activity against a variety of organisms. The in vitro activity of compounds of this invention can be assessed by standard testing procedures such as the determination of minimum inhibitory concentration (MIC) by agar dilution as described in “Approved Standard. Methods for Dilution Anti microbial Susceptibility Tests for Bacteria That Grow Aerobically”, 3rd. ed., published 1993 by the National Committee for Clinical Laboratory Standards, Villanova, Pa., USA. S.A is Methicillin-susceptible S. aureus UC®9213. Minimum inhibitory concentration refers to lowest concentration of drug (μg/mL) that inhibits visible growth of the organism.

SMILES | MIC [µg/mL]
CC(=O)NCn1cc(-c2ccc3c(c2)CC(C)N3C=O)c(=O)o1 (centres unmarked) [Example 1, N-{[4-(N-formyl-2-methylindolinyl)-5-oxo-isoxazol-2-yl]methyl}acetamide] | 2 (≈ 6.34 µM)
CN[C@H](CC(C)C)C(=O)N[C@H]1C(=O)N[C@@H](CC(N)=O)C(=O)N[C@H]2C(=O)N[C@H]3C(=O)N[C@H](C(=O)N[C@H](C(=O)O)c4cc(O)cc(O)c4-c4cc3ccc4O)[C@H](O)c3ccc(c(Cl)c3)Oc3cc2cc(c3O[C@@H]2O[C@H](CO)[C@@H](O)[C@H](O)[C@H]2O[C@H]2C[C@](C)(N)[C@H](O)[C@H](C)O2)Oc2ccc(cc2Cl)[C@H]1O [vancomycin] | 1 (≈ 0.69 µM)
